This note sets out measurements from US10479795B2 (Incyte Corporation, priority 2016, dated 2019).

Counter-ions that a name gives are not always drawn.

The target in this assay is PI3Kγ (p110γ) Recombinant Human Protein (Homo sapiens (Human), UniProt P48736). The assay can be described thus: PI3K-γ Scintillation Proximity Assay. The format is biochemical. The settings on record: read-out: PI3Kγ IC50. As to the method: [γ-^33P]ATP (10 mCi/mL) and Wheat Germ Agglutinin (WGA) YSi SPA Scintillation Beads was purchased from Perkin-Elmer (Waltham, Mass.). […] PI3Kγ (p110γ) Recombinant Human Protein was purchased from Life technology (Grand Island, N.Y.). ATP, MgCl2, DTT, EDTA, MOPS and CHAPS were purchased from Sigma-Aldrich (St. Louis, Mo.).
Sequence of PI3Kγ (p110γ) Recombinant Human Protein (P48736 whole entry): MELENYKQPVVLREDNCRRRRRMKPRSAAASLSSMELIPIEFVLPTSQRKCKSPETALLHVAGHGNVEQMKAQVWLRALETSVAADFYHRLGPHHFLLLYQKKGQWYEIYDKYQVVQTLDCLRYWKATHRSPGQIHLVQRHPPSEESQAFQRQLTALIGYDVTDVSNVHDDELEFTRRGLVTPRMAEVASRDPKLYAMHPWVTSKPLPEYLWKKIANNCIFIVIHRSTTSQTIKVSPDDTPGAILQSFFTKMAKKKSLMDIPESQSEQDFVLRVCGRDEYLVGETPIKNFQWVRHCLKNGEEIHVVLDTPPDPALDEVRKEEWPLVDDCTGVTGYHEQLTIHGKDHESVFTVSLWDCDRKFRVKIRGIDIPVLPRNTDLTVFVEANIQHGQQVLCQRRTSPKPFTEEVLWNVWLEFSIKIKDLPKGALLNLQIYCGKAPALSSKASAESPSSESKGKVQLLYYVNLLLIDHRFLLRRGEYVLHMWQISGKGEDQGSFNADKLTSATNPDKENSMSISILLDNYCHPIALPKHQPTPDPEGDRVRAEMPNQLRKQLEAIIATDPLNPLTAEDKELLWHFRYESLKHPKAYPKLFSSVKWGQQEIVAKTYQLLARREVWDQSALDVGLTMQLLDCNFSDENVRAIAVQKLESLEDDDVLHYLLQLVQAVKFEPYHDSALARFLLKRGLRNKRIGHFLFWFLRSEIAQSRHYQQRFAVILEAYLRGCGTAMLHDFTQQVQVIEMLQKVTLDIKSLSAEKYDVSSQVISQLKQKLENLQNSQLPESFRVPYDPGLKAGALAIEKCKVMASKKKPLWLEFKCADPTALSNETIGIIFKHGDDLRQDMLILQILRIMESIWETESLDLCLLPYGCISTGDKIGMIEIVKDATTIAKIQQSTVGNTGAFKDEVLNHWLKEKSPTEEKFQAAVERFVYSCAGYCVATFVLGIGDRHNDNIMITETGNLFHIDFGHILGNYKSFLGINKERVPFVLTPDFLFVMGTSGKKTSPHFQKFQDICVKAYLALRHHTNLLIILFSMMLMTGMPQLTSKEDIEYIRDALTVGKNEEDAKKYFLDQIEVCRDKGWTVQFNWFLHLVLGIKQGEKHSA
The kinase reaction was conducted in polystyrene 384-well Greiner Bio-one white plate from Thermo Fisher Scientific in a final volume of 25 μL. Inhibitors were first diluted serially in DMSO and added to the plate wells before the addition of other reaction components. The final concentration of DMSO in the assay was 2%. The PI3Kγ assay was carried out at room temperature in 20 mM MOPS, pH 6.7, 10 mM MgCl2, 5 mM DTT and CHAPS 0.03%. Reactions were initiated by the addition of ATP, the final reaction mixture consisted of 20 μM PIP2, 2 μM ATP, 0.5 μCi [γ-^33P] […] The final concentration of SPA beads is 1.0 mg/mL. After the plate sealing, plates were shaken overnight at room temperature and centrifuged at 1500 rpm for 10 min, the radioactivity of the product was determined by scintillation counting on Topcount (Perkin-Elmer). IC50 determination was performed by fitting the curve of percent of the solvent control activity versus the log of the inhibitor concentration using the GraphPad Prism 6.0 software.
(In a scintillation proximity assay essentially only radioactivity close to the scintillant gives light.)
A word on the IC50: it is the concentration at which inhibition is half-maximal. For `Cc1ccc(S(=O)(=O)N2CCN(C)C(=O)C2)cc1-c1cnc2c(N)ncnn12` [Example 228, 4-((3-(4-aminoimidazo[2,1-f][1,2,4]triazin-7-yl)-4-methylphenyl)sulfonyl)-1-methylpiperazin-2-one], the IC50 was less than 100 nM.

For the molecule `Cc1ccc(S(=O)(=O)N2CCn3cnc(C(=O)NCC(F)(F)F)c3C2)cc1-c1cnc2c(N)ncnn12` [Example 241, 7-((3-(4-aminoimidazo[2,1-f][1,2,4]triazin-7-yl)-4-methylphenyl)sulfonyl)-N-(2,2,2-trifluoroethyl)-5,6,7,8-tetrahydroimidazo[1,5-a]pyrazine-1-carboxamide], the IC50 is less than 100 nM.

For `COC(=O)N1CCC(c2cn3c(-c4cc(S(C)(=O)=O)ccc4C)cnc3c(N)n2)C1` (centres unmarked) [Example 538, Methyl 3-(8-amino-3-(2-methyl-5-(methylsulfonyl)phenyl)imidazo[1,2-a]pyrazin-6-yl)pyrrolidine-1-carboxylate trifluoroacetate], the IC50 lay in the range of 100 to 500 nM.

As to `Cc1ccc(S(=O)(=O)Nc2cc3cn[nH]c3cn2)cc1-c1cnc2c(N)ncnn12` [Example 243, 3-(4-aminoimidazo[2,1-f][1,2,4]triazin-7-yl)-4-methyl-N-(1H-pyrazolo[3,4-c]pyridin-5-yl)benzenesulfonamide], the IC50 is less than 100 nM.

As to `Cc1ccc(S(=O)(=O)NC23CC(CN(C(C)C)C2)C3)cc1-c1cnc2c(N)nc(C(F)(F)F)nn12` [Example 524, 3-(4-Amino-2-(trifluoromethyl)imidazo[2,1-f][1,2,4]triazin-7-yl)-N-(3-isopropyl-3-azabicyclo[3.1.1]heptan-1-yl)-4-methylbenzenesulfonamide trifluoroacetate], the IC50 is less than 100 nM.

Take `Cc1ccc(S(=O)(=O)N2CCC(c3ccccn3)CC2)cc1-c1cnc2c(N)ncnn12` [Example 216, 7-(2-methyl-5-((4-(pyridin-2-yl)piperidin-1-yl)sulfonyl)phenyl)imidazo[2,1-f][1,2,4]triazin-4-amine]: the IC50 was less than 100 nM.

For `Cc1ccc(S(=O)(=O)NC23CC(CN(C4CCC4)C2)C3)cc1-c1cnc2c(N)ncnn12` [Example 525, 3-(4-Aminoimidazo[2,1-f][1,2,4]triazin-7-yl)-N-(3-cyclobutyl-3-azabicyclo[3.1.1]heptan-1-yl)-4-methylbenzenesulfonamide trifluoroacetate], the IC50 fell in the range of 100 to 500 nM.

Turning to `Cc1ccc(S(=O)(=O)Nc2ccnc(C#N)c2)cc1-c1cnc2c(N)ncnn12` [Example 248, 3-(4-aminoimidazo[2,1-f][1,2,4]triazin-7-yl)-N-(2-cyanopyridin-4-yl)-4-methylbenzenesulfonamide], the IC50 was less than 100 nM.

For `Cc1ccc(S(=O)(=O)N2CCN(c3ccc(C#N)cn3)CC2)cc1-c1cnc2c(N)ncnn12` [Example 232, 6-(4-((3-(4-aminoimidazo[2,1-f][1,2,4]triazin-7-yl)-4-methylphenyl)sulfonyl)piperazin-1-yl)nicotinonitrile], the IC50 is less than 100 nM.

Consider `Cc1ccc(S(=O)(=O)NC23C4C5C2C2C3C4C52C#N)cc1-c1cnc2c(N)ncnn12` (centres unmarked) [Example 534, 3-(4-Aminoimidazo[2,1-f][1,2,4]triazin-7-yl)-N-(4-cyanocuban-1-yl)-4-methylbenzenesulfonamide trifluoroacetate], for which the IC50 was less than 100 nM.

Turning to `Cc1ccc(S(=O)(=O)NC2(C)CCCN(C(C)C)C2)cc1-c1cnc2c(N)nc(C(F)(F)F)nn12` (centres unmarked) [Example 527, 3-(4-Amino-2-(trifluoromethyl)imidazo[2,1-f][1,2,4]triazin-7-yl)-N-(1-isopropyl-3-methylpiperidin-3-yl)-4-methylbenzenesulfonamide trifluoroacetate], the IC50 is less than 100 nM.

Take `Cc1ccc(S(=O)(=O)Nc2ccc(C(=O)NCC(F)(F)F)nc2)cc1-c1cnc2c(N)ncnn12` [Example 539, 5-((3-(4-Aminoimidazo[2,1-f][1,2,4]triazin-7-yl)-4-methylphenyl)sulfonamido)-N-(2,2,2-trifluoroethyl)picolinamide trifluoroacetate]: the IC50 is less than 100 nM.

For the molecule `Cc1ccc(S(=O)(=O)N(C)c2ccncc2)cc1-c1cnc2c(N)ncnn12` [Example 247, 3-(4-aminoimidazo[2,1-f][1,2,4]triazin-7-yl)-N,4-dimethyl-N-(pyridin-4-yl)benzenesulfonamide], the IC50 was less than 100 nM.

In the case of `Cc1ccc(S(=O)(=O)Nc2c(C)nn(C)c2C)cc1-c1cnc2c(N)ncnn12` [Example 214, 3-(4-Aminoimidazo[2,1-f][1,2,4]triazin-7-yl)-4-methyl-N-(1,3,5-trimethyl-1H-pyrazol-4-yl)benzenesulfonamide], the IC50 was less than 100 nM.

Regarding `Cc1ccc(S(=O)(=O)N2CCCn3nccc32)cc1-c1cnc2c(N)ncnn12` [Example 215, 7-(5-((6,7-dihydropyrazolo[1,5-a]pyrimidin-4(5H)-yl)sulfonyl)-2-methylphenyl)imidazo[2,1-f][1,2,4]triazin-4-amine], the IC50 was less than 100 nM.

Take `Cc1ccc(S(=O)(=O)NC(CN)C2CC2)cc1-c1cnc2c(N)ncnn12` (centres unmarked) [Example 238, N-(2-amino-1-cyclopropylethyl)-3-(4-aminoimidazo[2,1-f][1,2,4]triazin-7-yl)-4-methylbenzenesulfonamide]: the IC50 was 100 to 500 nM.

With `Cc1ccc(S(=O)(=O)NCc2ccnn2C)cc1-c1cnc2c(N)nc(C(F)(F)F)nn12` [Example 357, 3-(4-amino-2-(trifluoromethyl)imidazo[2,1-f][1,2,4]triazin-7-yl)-4-methyl-N-((1-methyl-1H-pyrazol-5-yl)methyl)benzenesulfonamide], the IC50 is less than 100 nM.

Consider `Cc1nc(CNS(=O)(=O)c2ccc(C)c(-c3cnc4c(N)ncnn34)c2)no1` [Example 237, 3-(4-aminoimidazo[2,1-f][1,2,4]triazin-7-yl)-4-methyl-N-((5-methyl-1,2,4-oxadiazol-3-yl)methyl)benzenesulfonamide], for which the IC50 is less than 100 nM.

With `Cc1ccc(S(=O)(=O)N2CCn3cnnc3C2C)cc1-c1cnc2c(N)ncnn12` (centres unmarked) [Example 222, 7-(2-methyl-5-((8-methyl-5,6-dihydro-[1,2,4]triazolo[4,3-a]pyrazin-7(8H)-yl)sulfonyl)phenyl)imidazo[2,1-f][1,2,4]triazin-4-amine], the IC50 is less than 100 nM.

Consider `Cc1ccc(S(=O)(=O)N2CCn3ccnc3C2)cc1-c1cnc2c(N)ncnn12` [Example 223, 7-(5-((5,6-dihydroimidazo[1,2-a]pyrazin-7(8H)-yl)sulfonyl)-2-methylphenyl)imidazo[2,1-f][1,2,4]triazin-4-amine], for which the IC50 is less than 100 nM.

As for `CC(=O)N1CCC(c2cn3c(-c4cc(S(C)(=O)=O)ccc4C)cnc3c(N)n2)CC1` [Example 537, 1-(4-(8-Amino-3-(2-methyl-5-(methylsulfonyl)phenyl)imidazo[1,2-a]pyrazin-6-yl)piperidin-1-yl)ethan-1-one trifluoroacetate], the IC50 was less than 100 nM.

As for `CNC(=O)C1CCN(S(=O)(=O)c2ccc(C)c(-c3cnc4c(N)ncnn34)c2)CC1` [Example 227, 1-((3-(4-aminoimidazo[2,1-f][1,2,4]triazin-7-yl)-4-methylphenyl)sulfonyl)-N-methylpiperidine-4-carboxamide], the IC50 is less than 100 nM.

On to `Cc1ccc(S(=O)(=O)NCc2cccc(C(F)(F)F)n2)cc1-c1cnc2c(N)ncnn12` [Example 235, 3-(4-aminoimidazo[2,1-f][1,2,4]triazin-7-yl)-4-methyl-N-((6-(trifluoromethyl)pyridin-2-yl)methyl)benzenesulfonamide], for which the 50% inhibitory concentration (IC50) was less than 100 nM.

As for `Cc1ccc(S(=O)(=O)NC(c2ccccn2)C(F)(F)F)cc1-c1cnc2c(N)ncnn12` (centres unmarked) [Example 234, 3-(4-aminoimidazo[2,1-f][1,2,4]triazin-7-yl)-4-methyl-N-(2,2,2-trifluoro-1-(pyridin-2-yl)ethyl)benzenesulfonamide], the IC50 was 100 to 500 nM.

As to `Cc1ccc(S(=O)(=O)NC23CCCC(C#N)(C2)C3)cc1-c1cnc2c(N)ncnn12` [Example 520, 3-(4-Aminoimidazo[2,1-f][1,2,4]triazin-7-yl)-N-(5-cyanobicyclo[3.1.1]heptan-1-yl)-4-methylbenzenesulfonamide trifluoroacetate], the IC50 was less than 100 nM.

Consider `Cc1ccc(S(C)(=O)=O)cc1-c1cnc2c(N)nc(C3CCOCC3)cn12` [Example 536, 3-(2-Methyl-5-(methylsulfonyl)phenyl)-6-(tetrahydro-2H-pyran-4-yl)imidazo[1,2-a]pyrazin-8-amine trifluoroacetate], for which the IC50 was less than 100 nM.

Turning to `Cc1ccc(S(=O)(=O)NCc2cnccn2)cc1-c1cnc2c(N)ncnn12` [Example 233, 3-(4-aminoimidazo[2,1-f][1,2,4]triazin-7-yl)-4-methyl-N-(pyrazin-2-ylmethyl)benzenesulfonamide], the IC50 was less than 100 nM.

On to `Cc1ccc(S(=O)(=O)N2C3CC4CC2CC(C3)O4)cc1-c1cnc2c(N)ncnn12` [Example 221, 7-(5-((-2-oxa-6-azaadamantan-6-yl)sulfonyl)-2-methylphenyl)imidazo[2,1-f][1,2,4]triazin-4-amine], for which the 50% inhibitory concentration (IC50) was less than 100 nM.

As for `Cc1ccc(S(=O)(=O)NC2(C)CNC2)cc1-c1cnc2c(N)nc(C(F)(F)F)nn12` [Example 531, 3-(4-Amino-2-(trifluoromethyl)imidazo[2,1-f][1,2,4]triazin-7-yl)-4-methyl-N-(3-methylazetidin-3-yl)benzenesulfonamide trifluoroacetate], the half-inhibitory concentration (IC50) was less than 100 nM.
